Consider 1 molecule from patent US20220195059A1, “Rank Pathway Inhibitors in Combination with CDK Inhibitors” (INSTITUTO DE MEDICINA MOLECULAR JOÃO LOBO ANTUNES, priority 2019, published 2022).

For assay [1], the system named is cyclin D1, CDK4, CDK6, Cyclin E and CDK2 expression in RANK OE (MCF-7 OE) cells. Briefly: Western blot of proteins involved in cyclin/CDKs complexes. The assay is classed as cell-based, human. Particulars: 0, 24 or 72 hours. The method, then:
Membranes were blocked for 1 h at room temperature (RT) in 5% Non-Fat Dry Milk (NFDM) in PBS-0.1% Tween (PBST) for β-actin; or in 5% bovine serum albumin (BSA) (Santa Cruz) for other antibodies. […] Proteins were detected using a Novex® ECL HRP chemiluminescent substrate reagent kit (Invitrogen) according to the manufacturer's instructions, and x-ray films (Fujifilm) developed in a Curix 60 processor (AGFA), or the Amersham™ Imager 680 (GE Healthcare Life Sciences). Normalized protein expression was calculated using FIJI software and band densitometry analysis.
Briefly, expression of cyclin D1, CDK4, CDK6, Cyclin E and CDK2 were analyzed by Western blotting cell lysates of RANK OE (MDF-7 OE) cells exposed to palbociclib for 0 hours, 24 hours or 72 hours, and compared to the corresponding expression levels in the parental counterpart cells (expressing low levels of RANK; MCF-7 cells). […]

Assay [2] concerns RANK OE cells (MCF-7^OE, T47D^OE) and parental MCF-7, T47D cells. Briefly: Alamar blue viability assay, RANK OE luminal breast cancer cells vs parental counterparts. The assay is classed as cell-based, human. Particulars: RANK OE cells vs parental counterparts; drug alone; 7 days. The method, then:
Cells were seeded in 96 well-plates (2-5×10^4 cells/mL), with or without paclitaxel (Y0000698, Sigma), doxorubicin hydrochloride (D2975000, Sigma), palbociclib (PD 0332991 isethionate, PZ0199, Sigma), ribociclib (LEE011 succinate, SC-488174, Santa Cruz), abemaciclib mesylate (LY2835219, S7158, Selleckchem), fulvestrant (S1191, Selleckchem), everolimus (#73122, StemCell Technologies), full length human OPG (SRP3132, Sigma), and OPG-Fc (Amgen). Medium was replaced every 2 days. After 7 days, 1:10 Alamar blue (Invitrogen) was added to each well and fluorescence was measured 2 hours after incubation (excitation 560 nm; emission 590 nm) in an Infinite M200 microplate reader (Tecan).
In particular, RANK OE cells were tested for responsiveness to hormone therapy. Briefly, RANK OE cells were seeded in multi-well plates and exposed to fulvestrant for 7 days.
In this assay, however, RANK OE cells were exposed to a CDK 4/6 inhibitor alone or in combination with an inhibitor of the RANK pathway, in order to test the effect of blocking the RANK pathway in this context. Briefly, RANK OE cells were seeded in multi-well plates and exposed to palbociclib, ribociclib or abemaciclib alone or in combination with OPG-Fc for 7 days. Osteoprotegrin (OPG) is the physiologic soluble decoy receptor for RANK ligand (RANKL), and OPG-Fc is a fusion protein comprising only the four cysteine-rich domains of OPG (D1 to D4) fused with the Fc domain of an IgG1 antibody.
In this study, the CDK4/6 inhibitors palbociclib and ribociclib were exposed to RANK OE cells in combination with fulvestrant or everolimus. This combination therapy was then tested alone or in combination with OPG, an inhibitor of the RANK pathway. In this assay, the full-length OPG protein was used, in contrast to the previous example utilizing OPG-Fc.
To address this question, cell growth in the presence or absence of a CDK4 inhibitor was quantified. Briefly, cells were seeded in 96-well plates and exposed to two different drugs, CDK4 inhibitors, 3-ATA (FIG. 20A) or Cdk4 inhibitor Ill (FIG. 20B) for seven days. Medium was replaced every two days, and viability was assessed by Alamar blue assay. FIG. 20A provides the cell growth quantification in the presence of the CDK4 inhibitor 3-ATA and FIG. 20B provides the cell growth quantification in the presence of another CDK4 inhibitor, Cdk4 Inhibitor Ill. The results are the mean of at least three independent assays, with 4 replicates per assay, and presented as the mean±SEM. p-value was calculated using 2-way ANOVA, *p<0.05, **p<0.01, ***p<0.001.
To answer this question, cell growth in the presence of the pan-CDK inhibitor seliciclib (also known as roscovitine or CYC202) was analyzed. Briefly, cells were seeded in 96-well plates and exposed to different drugs for seven days. Medium was replaced every two days, and viability was assessed by Alamar blue assay.
Cells were seeded in 96 well-plates (2-5×10^4 cells/mL), with or without palbociclib (PD 0332991 isethionate, PZ0199, Sigma), ribociclib (LEE011 succinate, SC-488174, Santa Cruz), abemaciclib mesylate (LY2835219, S7158, Selleckchem), 3-ATA (sc-202414, Santa Cruz), Cdk4 inhibitor Ill (sc-202988, Santa Cruz), seliciclib (S1153, Selleckchem), and OPG-Fc (PL-33324, Amgen). Medium was replaced every 2 days. After 7 days, 1:10 Alamar blue (Invitrogen) was added to each well and fluorescence was measured 2 hours after incubation (excitation 560 nm; emission 590 nm) in an Infinite M200 microplate reader (Tecan).

Each structure is given as a SMILES string.

`CC(=O)c1c(C)c2cnc(Nc3ccc(N4CCNCC4)cn3)nc2n(C2CCCC2)c1=O` [palbociclib]: the “CyclinD1, CDK4 and CDK2 expression upon exposure to CDK4/6 inhibitor” value in assay [1] is given as “increased”. The “sensitivity of RANK OE cells to the drug (cell viability)” value in assay [2] is reported as “decreased sensitivity”.
